Here are results for 2 compounds from patent US4774078A, “Stable antiplaque dentifrice based on hexetidine, zinc ion and fluoride” (Colgate-Palmolive Company, priority 1986, dated 1988).

Where two headings read alike, the source gives them in different places.

Series [1] is described as follows: Active ingredient stability of dentifrice after aging 9 weeks at 49° C.
Excerpt: The pH of the dentifrice can be adjusted to 5-6 with an appropriate acid such as acetic acid, citric acid, hydrochloric acid, phosphoric acid, etc., if necessary.
In a further series the test system is Strep mutans. As to the kind of experiment: MIC (minimum inhibitory concentration) with Strep. mutans. Conditions: active ingredient alone, water/alcohol/propylene glycol mixture, total bacterial inhibition. In kind it is cell-based. The source says:
Hexetidine is a broad-spectrum, water-insoluble antibacterial, having the chemical formula [drawing 1] 5-amino-1,3-bis(2 ethylhexyl)-5-methyl-hexahydropyrimidine. It has been used as an antibacterial agent in antiplaque and antigingivitis oral compositions as previously discussed. However, hexetidine is a bitter-tasting chemical, thereby limiting its use to low levels in order to minimize its bitter taste, which in turn limits its therapeutic activity.
Table I gives the MIC (minimum inhibitory concentration) results with Strep. mutans.
All the active ingredients (AI) are in water/alcohol/propylene glycol mixtures.
The FIC (Fractional Inhibitory Concentration), has been calculated from the MIC data for each ratio.
A minimum concentration of 0.60 ppm hexetidine alone is needed for total bacterial inhibition, and a minimum concentration of 40 ppm of zinc++ alone is required for total bacterial inhibition; whereas a concentration of 0.12 ppm hexetidine in combination with 0.12 ppm zinc++ effects total bacterial inhibition. This increase in the antibacterial activity of the hexetidine due to the presence of the zinc++ reduces the amount necessary to produce a therapeutic effect, and this minimizes the bitter taste associated with hexetidine.

The conditions of series [2]: cited from earlier work.

As to `CCCCC(CC)CN1CN(CC(CC)CCCC)CC(C)(N)C1` (stereo not shown) [Hexetidine, 5-amino-1,3-bis(2 ethylhexyl)-5-methyl-hexahydropyrimidine], the “% Available After Aging” value in series [1] (in dentifrices of Examples 1 and 2 (sodium lauryl sulfate), pH 5-6, 90720 min) was determined as 65%; in series [1] (in dentifrices of Examples 3 and 4 (polyoxyethylene (20) sorbitan monoisostearate), pH 5.0-6.0, 90720 min) it was 92%. For the same compound, the MIC is 0.6 mg/L with Strep mutans (Streptococcus mutans, read-out: MIC) and 0.60 ppm with Strep mutans. Further, the water solubility result in series [2] is “water-insoluble”.

In the case of Zinc++, the MIC with Strep mutans stood at 40.00 ppm; in the series on Strep mutans (listed as zinc++) it was 40 ppm.
